Legend:
[1] = biological target: T1, recombinant human c-Met/HGF receptor (Homo sapiens, UniProt P08581); test: In vitro receptor tyrosine kinase assay (DELFIA), c-Met/HGF receptor; format: biochemical; conditions: Table 31; ATP 10 uM, enzyme 25 nM; read-out: CMet ic50
T1 construct: His tag (histidine tag from pBlueBacHis2A); made in house; host or cells: Hi-5 cells (Trichoplusia ni), recombinant baculovirus

VEGF receptor KDR = biological target: T2, VEGF receptor KDR (Homo sapiens, UniProt P35968); test: In vitro receptor tyrosine kinase assay (DELFIA), VEGF receptor KDR; format: biochemical; conditions: Table 31; ATP 0.6 uM, enzyme 5 nM; read-out: VEGFR IC50
T2 construct: made in house; host or cells: Sf9 cells (Spodoptera frugiperda), recombinant baculovirus
T2 sequence (P35968 806-1356): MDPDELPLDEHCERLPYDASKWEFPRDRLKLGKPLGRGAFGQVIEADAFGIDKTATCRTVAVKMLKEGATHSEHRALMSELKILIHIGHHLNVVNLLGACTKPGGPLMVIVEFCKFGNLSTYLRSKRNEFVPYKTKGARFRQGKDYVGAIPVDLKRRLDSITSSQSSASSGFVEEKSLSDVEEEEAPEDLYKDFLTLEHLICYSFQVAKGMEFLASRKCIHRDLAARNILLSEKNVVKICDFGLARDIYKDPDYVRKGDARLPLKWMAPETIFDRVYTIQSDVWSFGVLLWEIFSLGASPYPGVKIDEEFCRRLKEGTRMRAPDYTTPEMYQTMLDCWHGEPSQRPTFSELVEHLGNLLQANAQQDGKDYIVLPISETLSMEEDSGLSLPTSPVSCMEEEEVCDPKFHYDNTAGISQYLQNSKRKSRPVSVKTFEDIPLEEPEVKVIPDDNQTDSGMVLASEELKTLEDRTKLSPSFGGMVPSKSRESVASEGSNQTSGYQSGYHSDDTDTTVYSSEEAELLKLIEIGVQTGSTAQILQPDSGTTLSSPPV
Description: In Vitro Receptor Tyrosine Kinase Assays (c-Met/HGF receptor and VEGF Receptor KDR)
In the case of VEGF receptor KDR a 1.6-kb cDNA corresponding to the catalytic domain of VEGFR2 or KDR (Genbank accession number AF035121 amino acid 806 to 1356) was cloned into the Pst I site of the pDEST20 Gateway vector (Invitrogen) for the production of a GST-tagged version of that enzyme.
The GST-VEGFR2806-1356 protein was expressed in Sf9 cells (Spodoptera frugiperda) upon infection with recombinant baculovirus construct.
The supernatant was loaded onto a GST-agarose column (Sigma) equilibrated with PBS pH 7.3. Following a four column volume (CV) wash with PBS pH 7.3+1% Triton X-100 and 4 CV wash with buffer B (50 mM Tris pH 8.0, 20% glycerol and 100 mM NaCl), bound proteins were step eluted with 5 CV of buffer B supplemented with 5 mM DTT and 15 mM glutathion. […] Final GST-VEGFR2806-1356 protein preparations concentrations were about 0.7 mg/ml with purity approximating 70%.

A549 = A549 wound healing inhibition (HGF dependent migration); format: cell-based; conditions: Homo sapiens, Table 31, read-out: A549 wound healing inbib IC50
Description: (§1) HGF has well known activity in terms of inducing scattering and migration (wound healing) (Wells et al., Cell Motil Cytoskeleton. 2005 November 62(3):180-94; Miura et al., Urology 2001 December 58(6):1064-9; Nishimura et al., Int J. Urol. 1998 May 5(3):276-81; Wang et al., Mol Cancer Ther. 2003 November; 2(11):1085-92; and Christensen et al., Cancer Res. 2003 Nov. 1; 63(21):7345-55).

DU145 = DU145 scattering inhibition (HGF dependent scattering); format: cell-based; conditions: Homo sapiens, DU-145, Table 31, read-out: DU145 scattering inhib IC50
Description: as §1

T1 sequence (P08581 1078-1337): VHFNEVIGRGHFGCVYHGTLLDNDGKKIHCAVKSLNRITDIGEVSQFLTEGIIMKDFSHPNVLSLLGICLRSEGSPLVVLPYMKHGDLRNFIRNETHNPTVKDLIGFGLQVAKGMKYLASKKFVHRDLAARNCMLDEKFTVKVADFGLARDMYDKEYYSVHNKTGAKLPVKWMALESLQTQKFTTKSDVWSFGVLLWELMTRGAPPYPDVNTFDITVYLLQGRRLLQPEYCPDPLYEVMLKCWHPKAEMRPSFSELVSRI

| SMILES | IC50 [1] | IC50 (VEGF receptor KDR) | IC50 (A549) | IC50 (DU145) |
| --- | --- | --- | --- | --- |
| COc1ccccc1CC(=O)NC(=S)Nc1ccc(Oc2ccnc3cc(-c4cn(CC(N)=O)cn4)sc23)c(F)c1 | 50 to 250 nM | 50 to 250 nM | > 10000 nM | 1000 to 5000 nM |
| CCn1ccnc1-c1cc2nccc(Oc3ccc(NC(=S)NC(=O)Cc4ccc(F)cc4)cc3F)c2s1 | < 50 nM | < 50 nM | < 1000 nM | < 1000 nM |
| Cn1ccnc1-c1cc2nccc(Oc3ccc(NC(=S)NC(=O)Cc4ccc(F)cc4)cc3F)c2s1 | < 50 nM | < 50 nM | < 1000 nM | < 1000 nM |
| Cc1ccccc1CC(=O)NC(=S)Nc1ccc(Oc2ccnc3cc(-c4nccn4C)sc23)c(F)c1 | < 50 nM | < 50 nM | < 1000 nM | < 1000 nM |
| Cc1ccccc1CC(=O)NC(=S)Nc1ccc(Oc2ccnc3cc(C4=CCN(C)CC4)sc23)c(F)c1 | < 50 nM | 250 to 500 nM | < 1000 nM | < 1000 nM |
| O=C(Cc1ccccc1)NC(=S)Nc1ccc(Oc2ccnc3cc(-c4cccc[n+]4[O-])sc23)c(F)c1 | < 50 nM | 50 to 250 nM | < 1000 nM | < 1000 nM |
| CN1CCN(Cc2ccc(-c3cc4nccc(Oc5ccc(NC(=S)NC(=O)Cc6ccc(F)cc6)cc5F)c4s3)cc2)CC1 | < 50 nM | < 50 nM | < 1000 nM | < 1000 nM |
| C#Cc1ccccc1CC(=O)NC(=S)Nc1ccc(Oc2ccnc3cc(-c4nccn4CC)sc23)c(F)c1 | < 50 nM | < 50 nM | < 1000 nM | < 1000 nM |
| C#Cc1ccc(CC(=O)NC(=S)Nc2ccc(Oc3ccnc4cc(-c5nccn5C)sc34)c(F)c2)cc1 | 50 to 250 nM | 50 to 250 nM | 1000 to 5000 nM | > 10000 nM |
| C#Cc1ccccc1CC(=O)NC(=S)Nc1ccc(Oc2ccnc3cc(-c4nccn4C)sc23)c(F)c1 | < 50 nM | < 50 nM | < 1000 nM | < 1000 nM |
| C#Cc1ccccc1CC(=O)NC(=S)Nc1ccc(Oc2ccnc3cc(-c4cn(CCN5CCCC5)cn4)sc23)c(F)c1 | < 50 nM | < 50 nM | < 1000 nM | < 1000 nM |
| C#Cc1ccccc1CC(=O)NC(=S)Nc1ccc(Oc2ccnc3cc(C4=CCN(C)CC4)sc23)c(F)c1 | < 50 nM | 50 to 250 nM | < 1000 nM | < 1000 nM |
| C#Cc1ccc(CC(=O)NC(=S)Nc2ccc(Oc3ccnc4cc(-c5cn(CC)cn5)sc34)c(F)c2)cc1 | 50 to 250 nM | < 50 nM | 1000 to 5000 nM | 1000 to 5000 nM |
| C#Cc1ccc(CC(=O)NC(=S)Nc2ccc(Oc3ccnc4cc(-c5ccc(CN(C)CCO)cc5)sc34)c(F)c2)cc1 | 50 to 250 nM | < 50 nM | > 10000 nM | > 10000 nM |
| CCn1cnc(-c2cc3nccc(Oc4ccc(NC(=S)NC(=O)Cc5cccc(F)c5)cc4F)c3s2)c1 | < 50 nM | < 50 nM | < 1000 nM | < 1000 nM |
| Cn1cnc(-c2cc3nccc(Oc4ccc(NC(=S)NC(=O)Cc5cccc(F)c5)cc4F)c3s2)c1 | < 50 nM | 50 to 250 nM | < 1000 nM | < 1000 nM |
| Cn1cnc(-c2cc3nccc(Oc4ccc(NC(=S)NC(=O)Cc5ccc(F)cc5F)cc4F)c3s2)c1 [drawing 434] | < 50 nM | < 50 nM | < 1000 nM | < 1000 nM |
| Cn1cnc(-c2cc3nccc(Oc4ccc(NC(=S)NC(=O)Cc5ccc(F)cc5)cc4F)c3s2)c1 [drawing 440] | < 50 nM | < 50 nM | < 1000 nM | < 1000 nM |
| CCn1cnc(-c2cc3nccc(Oc4ccc(NC(=S)NC(=O)Cc5ccccc5C)cc4F)c3s2)c1 [drawing 441] | < 50 nM | < 50 nM | < 1000 nM | < 1000 nM |
| C#Cc1ccccc1CC(=O)NC(=S)Nc1ccc(Oc2ccnc3cc(-c4cn(C)cn4)sc23)c(F)c1 [drawing 451] | < 50 nM | < 50 nM | < 1000 nM | < 1000 nM |
